Assays:
Test in all cases: relative viability (nuclei count vs DMSO), 5 days (fraction); higher = more cells survive
A549 = test system: A549
Summary of the method: (§1)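 One day after seeding in 1536-well plates, lung cancer cell lines were dosed by pin tool. Dosing was either single-drug or a fixed anchor-drug dose plus five library-drug doses (not always all listed) in √10 steps. After 5 days, nuclei were stained in one fix-and-stain step and counted on 4× images, and relative viability is the nuclei count of treated wells over that of vehicle wells, given as the median of duplicate plates.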

HCC-15 = test system: HCC-15
Summary of the method: as §1

LCLC-103H = test system: LCLC-103H
Summary of the method: as §1

NCI-H1648 = test system: NCI-H1648
Summary of the method: as §1

NCI-H522 = test system: NCI-H522
Summary of the method: as §1

UMC-11 = test system: UMC-11
Summary of the method: as §1

IA-LM = test system: IA-LM
Summary of the method: as §1

NC(=O)Nc1cc(-c2cccc(F)c2)sc1C(=O)N[C@H]1CCCNC1 [AZD7762] + Nc1ncn([C@H]2C[C@H](O)[C@@H](CO)O2)c(=O)n1 [Decitabine] (partner 2 µM)
relative viability (A549; first compound 0.01 µM): 0.305 | relative viability (A549; first compound 0.03162 µM): 0.252 | relative viability (A549; first compound 0.1 µM): 0.27 | relative viability (A549; first compound 0.3162 µM): 0.281 | relative viability (A549; first compound 1 µM): 0.202 | relative viability (HCC-15; first compound 0.01 µM): 0.565 | relative viability (HCC-15; first compound 0.03162 µM): 0.587 | relative viability (HCC-15; first compound 0.1 µM): 0.622 | relative viability (HCC-15; first compound 0.3162 µM): 0.553 | relative viability (HCC-15; first compound 1 µM): 0.589 | relative viability (LCLC-103H; first compound 0.01 µM): 0.766 | relative viability (LCLC-103H; first compound 0.03162 µM): 0.824 | relative viability (LCLC-103H; first compound 0.1 µM): 0.764 | relative viability (LCLC-103H; first compound 0.3162 µM): 0.725 | relative viability (LCLC-103H; first compound 1 µM): 0.829 | relative viability (NCI-H1648; first compound 0.01 µM): 0.512 | relative viability (NCI-H1648; first compound 0.03162 µM): 0.671 | relative viability (NCI-H1648; first compound 0.1 µM): 0.415 | relative viability (NCI-H1648; first compound 0.3162 µM): 0.462 | relative viability (NCI-H1648; first compound 1 µM): 0.437 | relative viability (NCI-H522; first compound 0.01 µM): 0.668 | relative viability (NCI-H522; first compound 0.03162 µM): 0.709 | relative viability (NCI-H522; first compound 0.1 µM): 0.714 | relative viability (NCI-H522; first compound 0.3162 µM): 0.689 | relative viability (NCI-H522; first compound 1 µM): 0.686 | relative viability (UMC-11; first compound 0.01 µM): 0.728 | relative viability (UMC-11; first compound 0.03162 µM): 0.591 | relative viability (UMC-11; first compound 0.1 µM): 0.598 | relative viability (UMC-11; first compound 0.3162 µM): 0.479 | relative viability (UMC-11; first compound 1 µM): 0.305

NC(=O)Nc1cc(-c2cccc(F)c2)sc1C(=O)N[C@H]1CCCNC1 [AZD7762] + O=C(CCCCCCC(=O)Nc1ccccc1)NO [Vorinostat] (partner 1 µM)
relative viability (HCC-15; first compound 0.01 µM): 0.844 | relative viability (HCC-15; first compound 0.03162 µM): 0.691 | relative viability (HCC-15; first compound 0.1 µM): 0.908 | relative viability (HCC-15; first compound 0.3162 µM): 0.734 | relative viability (HCC-15; first compound 1 µM): 0.723 | relative viability (IA-LM; first compound 0.01 µM): 1.04 | relative viability (IA-LM; first compound 0.03162 µM): 0.984 | relative viability (IA-LM; first compound 0.1 µM): 1.04 | relative viability (IA-LM; first compound 0.3162 µM): 0.74 | relative viability (IA-LM; first compound 1 µM): 1.17 | relative viability (LCLC-103H; first compound 0.01 µM): 0.857 | relative viability (LCLC-103H; first compound 0.03162 µM): 0.776 | relative viability (LCLC-103H; first compound 0.1 µM): 0.842 | relative viability (LCLC-103H; first compound 0.3162 µM): 0.591 | relative viability (LCLC-103H; first compound 1 µM): 0.69 | relative viability (NCI-H1648; first compound 0.01 µM): 0.735 | relative viability (NCI-H1648; first compound 0.03162 µM): 0.488 | relative viability (NCI-H1648; first compound 0.1 µM): 0.45 | relative viability (NCI-H1648; first compound 0.3162 µM): 0.472 | relative viability (NCI-H1648; first compound 1 µM): 0.421 | relative viability (NCI-H522; first compound 0.01 µM): 0.869 | relative viability (NCI-H522; first compound 0.03162 µM): 0.923 | relative viability (NCI-H522; first compound 0.1 µM): 0.912 | relative viability (NCI-H522; first compound 0.3162 µM): 0.624 | relative viability (NCI-H522; first compound 1 µM): 0.783 | relative viability (UMC-11; first compound 0.01 µM): 0.373 | relative viability (UMC-11; first compound 0.03162 µM): 0.297 | relative viability (UMC-11; first compound 0.1 µM): 0.324 | relative viability (UMC-11; first compound 0.3162 µM): 0.271 | relative viability (UMC-11; first compound 1 µM): 0.194

CC1(C)CCC(c2ccc(Cl)cc2)=C(CN2CCN(c3ccc(C(=O)NS(=O)(=O)c4ccc(N[C@H](CCN5CCOCC5)CSc5ccccc5)c(S(=O)(=O)C(F)(F)F)c4)cc3)CC2)C1 [Navitoclax] + CC(=O)Nc1cccc(-n2c(=O)n(C3CC3)c(=O)c3c(Nc4ccc(I)cc4F)n(C)c(=O)c(C)c32)c1 [Trametinib] (partner 0.02 µM)
relative viability (HCC-15; first compound 0.005 µM): 0.329 | relative viability (HCC-15; first compound 0.01581 µM): 0.432 | relative viability (HCC-15; first compound 0.05 µM): 0.332 | relative viability (HCC-15; first compound 0.1581 µM): 0.401 | relative viability (HCC-15; first compound 0.5 µM): 0.35 | relative viability (LCLC-103H; first compound 0.005 µM): 0.637 | relative viability (LCLC-103H; first compound 0.01581 µM): 0.731 | relative viability (LCLC-103H; first compound 0.05 µM): 0.704 | relative viability (LCLC-103H; first compound 0.1581 µM): 0.691 | relative viability (LCLC-103H; first compound 0.5 µM): 0.685 | relative viability (NCI-H1648; first compound 0.005 µM): 0.541 | relative viability (NCI-H1648; first compound 0.01581 µM): 0.427 | relative viability (NCI-H1648; first compound 0.1581 µM): 0.453 | relative viability (NCI-H1648; first compound 0.5 µM): 0.402 | relative viability (NCI-H522; first compound 0.005 µM): 0.753 | relative viability (NCI-H522; first compound 0.01581 µM): 0.782 | relative viability (NCI-H522; first compound 0.05 µM): 0.778 | relative viability (NCI-H522; first compound 0.1581 µM): 0.627 | relative viability (NCI-H522; first compound 0.5 µM): 0.725 | relative viability (UMC-11; first compound 0.005 µM): 0.658 | relative viability (UMC-11; first compound 0.01581 µM): 0.703 | relative viability (UMC-11; first compound 0.05 µM): 0.483 | relative viability (UMC-11; first compound 0.1581 µM): 0.574 | relative viability (UMC-11; first compound 0.5 µM): 0.321
